From EP1243581A1, “Pyridinium compounds useful for the treatment of AGE-related diseases” (Torrent Pharmaceuticals Ltd, priority 2001, dated 2002) come the findings set out here.

Each structure is given as a SMILES string.

The target of one experiment is T1, AGE-BSA (Bos taurus, UniProt P02769).
T1 construct: Bovine serum albumin (fraction V) (BSA); from tissue; host or cells: bovine serum (fraction V albumin)
T1 sequence (P02769 25-607): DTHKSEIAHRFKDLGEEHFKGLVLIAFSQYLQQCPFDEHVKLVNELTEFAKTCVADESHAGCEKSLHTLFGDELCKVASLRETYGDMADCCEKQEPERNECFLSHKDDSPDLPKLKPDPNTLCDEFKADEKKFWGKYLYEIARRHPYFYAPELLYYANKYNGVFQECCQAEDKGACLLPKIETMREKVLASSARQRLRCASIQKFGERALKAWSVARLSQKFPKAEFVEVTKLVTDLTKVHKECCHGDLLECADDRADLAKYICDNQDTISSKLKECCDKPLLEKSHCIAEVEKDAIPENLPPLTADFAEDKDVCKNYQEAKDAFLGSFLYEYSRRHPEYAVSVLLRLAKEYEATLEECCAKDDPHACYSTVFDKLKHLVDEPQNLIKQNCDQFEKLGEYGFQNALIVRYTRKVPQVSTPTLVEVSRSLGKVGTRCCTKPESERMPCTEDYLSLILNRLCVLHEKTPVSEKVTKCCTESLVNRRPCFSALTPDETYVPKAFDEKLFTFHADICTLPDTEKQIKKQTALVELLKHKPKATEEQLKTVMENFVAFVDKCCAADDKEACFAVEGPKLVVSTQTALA
Kind of experiment: In-vitro screening for AGE-breaking activity (ELISA on 16 weeks AGE-BSA). The experiment is classed as biochemical, bovine. The settings on record: Concentration 1 mM; 10µg/ml 16 weeks AGE-BSA, 37°C, 24 hours.
Method: • Materials: • Bovine serum albumin (fraction V) (BSA) • Glucose, analytical grade • Phosphate buffered saline (PBS) • Equipment: • Microplate ELISA Reader - Spectramax Plus (Molecular Devices, USA) • Microplate washer, (Bio -Tec Instruments, USA) • pH meter Methods of experiment: Elisa (Enzyme Linked Immunosorbent Assay) 160 mg/ml of protein, bovine serum albumin, BSA and 1.6M glucose sugar were dissolved in phosphate buffered saline, PBS. Sodium azide was added at 0.02% concentration as a preservative. The solution was filtered asceptically through a 0.22 µM filter and kept for aging at 37°C for 16 weeks. After 16 weeks the solution was dialyzed against PBS, aliquoted and stored at - 20°C.
To determine the AGE breaking activity, 10µg/ml of the 16 weeks AGE-BSA was incubated with different concentrations of the test compounds at 37°C for 24 hours and AGE breaking activity of the test compounds by ELISA was determined. […] Different concentrations of 16 weeks AGE-BSA were coated on a microtitre plate as standard. Each concentration is coated in triplicates. • 2. The test samples were coated on microtitre plate at a concentration of 5 ng. to 20 ng per well in triplicates. • 3. The plate was incubated at 37°C for one hour. • 4. After incubation the plate was washed with PBST (PBS with 0.05% Tween 20). • 5. Blocking with 5% skimmed milk in PBS at 37°C for one hour was done. • 6. The plate was washed with PBST. • 7. Primary antibody against AGE-BSA was added and the plate is incubated at 37°C for one hour. • 8. The plate was washed with PBST • 9. Secondary antibody anti rabbit HRPO (Horse-Radish Per Oxidase) conjugate was added and the plate is incubated at 37°C for one hour. • 10. The plate was washed with PBST. • 11. Colour development with OPD (orthophenylenediamine dihydrochloride) and hydrogen peroxide was done. • 12. OD (optical density) at (450nm reading - 620nm reading) was measured after incubation at 37°C for 15 minutes with Microplate ELISA Reader.
The breaker activity of the compounds were determined by the following formula: % Breaker activity =(OD450-620 Control - OD450-620 Test)/(OD450-620 Control)x 100 [formula]
The compound `CS(=O)(=O)NNC(=O)c1ccc[n+](CC(=O)c2ccc([N+](=O)[O-])s2)c1` [Compound 49, 1-2-(5-nitro-thien-2-yl)-2-oxoethyl)-3-(methanesulfonyl hydrazino carbonyl) pyridinium chloride] had a % breakage of AGE-BSA crosslinks at 1000 µM of 42%.

With `Cc1ccc(C(=O)NNS(C)(=O)=O)c[n+]1CC(=O)c1cccs1` [Compound 39, 1-(2-thien-2'-yl-2-oxoethyl)-3-(methanesulfonyl hydrazinocarbonyl) -6-methyl pyridinium bromide], the % breakage of AGE-BSA crosslinks at 1000 µM is 77.7%.

Compound `NC(=O)c1cc(C(=O)NNC(=O)c2ccc[n+](CC(=O)c3cccs3)c2)c[n+](CC(=O)c2cccs2)c1` [Compound 42, 1-[1-(2-thien-2'-yl-2-oxoethyl)-5-aminocarbonyl-3-carbonylpyridinium]-2-[1-(2-Thien-2'-yl-2-oxoethyl)-3-carbonylpyridinium] hydrazine dichloride] yielded a % breakage of AGE-BSA crosslinks at 1000 µM of 95.4%.

The experiment is the same for the next values; noted with them: Concentration 2.5 mM; 10µg/ml 16 weeks AGE-BSA, 37°C, 24 hours.
`Cc1ccc(C(=O)NNC(=O)c2ccc[n+](CC(=O)c3cccs3)c2)c[n+]1CC(=O)c1cccs1` [Compound 31, 1-[1-(2-thien-2'-yl-2-oxoethyl)-6-methyl-3-carbonylpyridinium]-2-[1-(2-Thien-2'-yl-2-oxoethyl)-3-carbonylpyridinium] hydrazine dichloride] gave a % breakage of AGE-BSA crosslinks at 2500 µM of 85.7%.

In turn, `CS(=O)(=O)NNC(=O)c1cc(Br)c[n+](CC(=O)c2cccs2)c1` [Compound 35, 1-(2-thien-2'-yl-2-oxoethyl)-3-(methanesulfonyl hydrazinocarbonyl)-5-bromo pyridinium bromide] had a % breakage of AGE-BSA crosslinks at 2500 µM of 29.4%.

Still in this experiment, the particulars now being: Concentration 10 mM; 10µg/ml 16 weeks AGE-BSA, 37°C, 24 hours.
`COCCNC(=O)c1cc(Br)c[n+](CC(=O)c2cccs2)c1` [Compound 29, 1-(2-thien-2'-yl-2-oxoethyl)-3-((2-methoxyethyl)aminocarbonyl)-5-bromo pyridinium chloride] registered a % breakage of AGE-BSA crosslinks at 10000 µM of 32.4%.

With `O=C(NNC(=O)c1ccc[n+](CC(=O)c2ccco2)c1)c1ccc[n+](CC(=O)c2ccco2)c1` [Compound 14, N, N' - bis [3-carbonyl-1-(2-furan-2'-yl-2-oxoethyl)pyridinium] hydrazine dibromide], the % breakage of AGE-BSA crosslinks at 10000 µM was found to be 14%.

Turning to `O=C(NNC(=O)c1ccc[n+](CC(=O)c2ccc(Cl)s2)c1)c1ccc[n+](CC(=O)c2ccc(Cl)s2)c1` [Compound 44, N,N'-bis[3-carbonyl-1-(2-(5-chloro-thien-2-yl)-2-oxoethyl)pyridinium] hydrazine dichloride], the % breakage of AGE-BSA crosslinks at 10000 µM is 78.4%.

Consider `CS(=O)(=O)NNC(=O)c1ccc[n+](CC(=O)c2cccs2)c1` [Compound 27, 1-(2-thien-2'-yl-2-oxoethyl)-3-(methanesulfonyl hydrazinocarbonyl) pyridinium chloride], for which the % breakage of AGE-BSA crosslinks at 10000 µM is 17.5%.

`COCCOC(=O)c1ccc[n+](CC(=O)c2ccc(Cl)cc2Cl)c1` [Compound 4, 1-(2-(2',4'-dichlorophenyl)-2-oxoethyl)-3-(2(methoxy)ethyloxycarbonyl) pyridinium bromide] came in with a % breakage of AGE-BSA crosslinks at 10000 µM of 13%.

As for `CCOC(=O)NNC(=O)c1ccc[n+](CC(=O)c2cccs2)c1` [Compound 36, 1-(2-thien-2'-yl-2-oxoethyl)-3-(ethoxycarbonyl hydrazinocarbonyl) pyridinium bromide], the % breakage of AGE-BSA crosslinks at 10000 µM stood at 33.4%.

`CC(C)S(=O)(=O)NNC(=O)c1ccc[n+](CC(=O)c2cccs2)c1` [Compound 32, 1-(2-thien-2'-yl-2-oxoethyl)-3-(isopropylsulfonyl hydrazinocarbonyl) pyridinium bromide] gave a % breakage of AGE-BSA crosslinks at 10000 µM of 31.4%.

As for `O=C(NNC(=O)c1cccnc1Cl)c1ccc[n+](CC(=O)c2cccs2)c1` [Compound 24, 1-(2-thien-2'yl-2-oxoethyl)-3-(2-(2-chloro-3-pyridoylhydrazinocarbonyl) -pyridinium chloride], the % breakage of AGE-BSA crosslinks at 10000 µM is 12.5%.

In turn, `Cc1ccc(C(=O)C[n+]2cccc(C(=O)NNC(=O)c3ccc[n+](CC(=O)c4ccc(C)s4)c3)c2)s1` [Compound 40, N,N'-bis[3-carbonyl-1-(2-(5-methyl-thien-2-yl)-2-oxoethyl)pyridinium] hydrazine dichloride] registered a % breakage of AGE-BSA crosslinks at 10000 µM of 82%.

As to `O=C(NNS(=O)(=O)C(F)(F)F)c1ccc[n+](CC(=O)c2cccs2)c1` [Compound 50, 1-(2-thien-2'-yl-2-oxoethyl)-3-(trifluoromethanesulfonyl hydrazinocarbonyl) - pyridinium bromide], the % breakage of AGE-BSA crosslinks at 10000 µM was 92.6%.

Consider `O=C(C[n+]1cccc(C(=O)NCCOC(=O)c2ccccc2)c1)Nc1ccccc1` [Compound 5, 1-(2-phenylamino-2-oxoethyl)-3-((benzoyloxy)ethylaminocarbonyl) pyridinium chloride], for which the % breakage of AGE-BSA crosslinks at 10000 µM came to 37%.

As to `CCOC(=O)C1CCCN1C(=O)C[n+]1cccc(C(=O)NNC(=O)c2ccc[n+](CC(=O)N3CCCC3C(=O)OCC)c2)c1` (stereo not drawn) [Compound 41, N,N'-bis[3-carbonyl-1-(2-(2-ethoxycarbonylpyrrolidin-1-yl)-2-oxoethyl)pyridinium] hydrazine dichloride], the % breakage of AGE-BSA crosslinks at 10000 µM is 20.3%.

The experiment is the same for the next values; noted with them: Concentration 25 mM; 10µg/ml 16 weeks AGE-BSA, 37°C, 24 hours; read-out: % Breakage.
For `COCCOC(=O)c1ccc[n+](CC(=O)c2ccc(Cl)cc2Cl)c1` [Compound 4, 1-(2-(2',4'-dichlorophenyl)-2-oxoethyl)-3-(2(methoxy)ethyloxycarbonyl) pyridinium bromide], the inhibition at 25000 µM was 41%.

Regarding `O=C(C[n+]1cccc(C(=O)NCCOC(=O)c2ccccc2)c1)Nc1ccccc1` [Compound 5, 1-(2-phenylamino-2-oxoethyl)-3-((benzoyloxy)ethylaminocarbonyl) pyridinium chloride], the inhibition at 25000 µM worked out at 90%.

The experiment is the same for the next values; noted with them: read-out: % Breakage.
On to `O=C(NNC(=O)c1ccc[n+](CC(=O)c2cc([N+](=O)[O-])cs2)c1)c1ccc[n+](CC(=O)c2cc([N+](=O)[O-])cs2)c1` [Compound 38, N,N'-bis[3-carbonyl-1-(2-(4-nitro-thien-2-yl)-2-oxoethyl)pyridinium] hydrazine dichloride], for which the inhibition at 10000 µM came to 75.9%.

For the compound `COCCNC(=O)c1ccc[n+](CC(=O)c2ccc(Cl)cc2Cl)c1` [Compound 20, 1-(2',4'-dichloro-phenyl-2-oxoethyl)-3-(2-methoxyethylaminocarbonyl)-pyridinium bromide], the inhibition at 5000 µM worked out at 17.7%.

Consider `CS(=O)(=O)NNC(=O)c1ccc[n+](CC(=O)N2CCC(Cc3ccccc3)CC2)c1` [Compound 33, 1-(2-(4-benzylpiperidin-1-yl)-2-oxoethyl)-3-(methanesulfonyl hydrazinocarbonyl) pyridinium chloride], for which the inhibition at 10000 µM turned out to be 20.9%.

For the compound `O=C(C[n+]1ccsc1)c1ccccc1` [PTB, N- phenacyl thiazolium bromide, reference compound], the inhibition at 10000 µM was 27% and the inhibition at 20000 µM is 47%.

`CS(=O)(=O)NNC(=O)c1ccc[n+](CC(=O)c2ccc(Cl)s2)c1` [Compound 37, 1-(2-(5-chloro-thien-2-yl)-2-oxoethyl)-3-(methanesulfonyl hydrazinocarbonyl) pyridinium bromide]: the inhibition at 10000 µM came to 40.9%.

In the case of `CC(C)NC(=O)C[n+]1cccc(C(=O)NNS(C)(=O)=O)c1` [Compound 25, 1-(2-isopropylamino-2-oxoethyl)-3-(2-methylsulfonylhydrazinocarbonyl) -pyridinium chloride], the inhibition at 10000 µM was 10.8%.

As to `CS(=O)(=O)NNC(=O)c1ccc[n+](CC(=O)c2cc([N+](=O)[O-])cs2)c1` [Compound 46, 1-(2-(4-nitro-thien-2-yl)-2-oxoethyl)-3-(methanesulfonyl hydrazinocarbonyl) pyridinium bromide], the inhibition at 10000 µM came out at 60.9%.

As to `O=C(C[n+]1cccc(C(=O)NNc2ccccc2)c1)Nc1ccccc1` [Compound 47, 1-(2-phenylamino-2-oxoethyl)-3-(phenyl hydrazinocarbonyl) pyridinium chloride], the inhibition at 2500 µM was found to be 68.3%.

With `CCOC(=O)C1CSCN1C(=O)C[n+]1cccc(C(=O)NNS(C)(=O)=O)c1` (stereo not drawn) [Compound 43, 1-(2-(4-carbethoxy-thiazolidin-3-yl)-2oxoethyl)-3-(methanesulfonyl hydrazinocarbonyl) pyridinium chloride], the inhibition at 10000 µM was 25.1%.

Regarding `O=C(C[n+]1ccc(C(=O)NCCOC(=O)c2ccccc2)cc1)Nc1ccccc1` [Compound 48, 1-(2-phenylamino-2-oxoethyl)-4-[2-(benzoyloxy)ethylaminocarbonyl] pyridinium chloride], the inhibition at 10000 µM came out at 19.1%.

As for `Cc1ccc(C(=O)C[n+]2cccc(C(=O)NNS(C)(=O)=O)c2)s1` [Compound 45, 1-(2-(5-methyl-thien-2-yl)-2-oxoethyl)-3-(methanesulfonyl hydrazinocarbonyl) pyridinium chloride], the inhibition at 10000 µM amounted to 25.2%.

Take `COCCNC(=O)c1ccc[n+](CC(=O)NC2CC2)c1` [Compound 22, 1-(2-cyclopropylamino-2-oxoethyl)-3-(2-methoxyethylaminocarbonyl)-pyridinium chloride]: the inhibition at 10000 µM amounted to 12.4%.

Regarding `CCOC(=O)C1CCCN1C(=O)C[n+]1cccc(C(=O)NNS(C)(=O)=O)c1` (stereo not drawn) [Compound 34, 1-(2-(2-ethoxycarbonylpyrrolidin-1-yl)-2-oxoethyl)-3-(methanesulfonyl hydrazinocarbonyl) pyridinium chloride], the inhibition at 10000 µM stood at 25.3%.
